Measured values reported in publication PMC9002265, “A New Series of Strigolactone Analogs Derived From Cinnamic Acids as Germination Inducers for Root Parasitic Plants” (Frontiers in Plant Science, 2022).

Key:
[1] = tested on: Arabidopsis wild type Col-0; test: Growth promoting assay and root phenotypic analysis; assay type: in vivo; conditions: 1 μM on agar plate
Protocol: Sterilized seeds of the Arabidopsis wild type Col-0 were put on the plate containing 1% (w/v) agar-solidified 0.5× Murashige and Skoog (MS) medium, 1% sucrose. Test compounds were dissolved in the medium at 1 μM by 10,000 times dilution from each acetone stock (final concentration of acetone was 0.01% (v/v)). To evaluate the growth promoting effect, these seedlings were cultured horizontally at 22°C for 20 days under LED light (105 μmol/m^2/s) with a 16 h light/8 h dark photoperiod. After the cultivation, flesh weight of shoot was measured. For root phenotypic analysis, these seedlings were cultured verticaly at 22°C for 11 days under LED light (105 μmol/m^2/s) with a 16 h light/8 h dark photoperiod. After the cultivation, root length was measured by using ImageJ software and number of lateral roots was counted by using a microscope.

[2] = target: T1, ShHTL6 (Striga hermonthica, UniProt A0A0M4AUV4); test: YLG assay (inhibition of YLG hydrolysis) with recombinant ShHTL6; assay type: biochemical
T1 sequence (A0A0M4AUV4 1-271): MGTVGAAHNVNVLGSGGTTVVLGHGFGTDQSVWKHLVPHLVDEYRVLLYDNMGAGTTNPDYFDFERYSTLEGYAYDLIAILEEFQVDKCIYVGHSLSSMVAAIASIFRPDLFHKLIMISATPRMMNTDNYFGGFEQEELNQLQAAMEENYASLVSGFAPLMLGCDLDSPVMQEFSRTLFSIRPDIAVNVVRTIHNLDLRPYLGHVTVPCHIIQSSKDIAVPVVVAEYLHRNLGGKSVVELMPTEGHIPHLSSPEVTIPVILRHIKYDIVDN
Protocol: (§1) The ORF fragment of ShHTL6 and ShHTL7 was synthesized using IDT gBlock service. The PCR amplified ShHTL6 and ShHTL7 fragment was digested with Nco I and EcoR I, and the digested product was introduced into a modified pET28 vector with an N-terminal His8 tag. Escherichia coli BL21(DE3) was used for protein expression. The overnight culture (12 ml) was added to a fresh LB medium (1.2 L) containing kanamycin (50 mg/L) at 37°C. After OD600 reached 0.8, 0.1 mM IPTG was added and the cell was further incubated at 16°C for 21 h. The culture medium was centrifuged at 3700 g and the pellet was stored at −20°C until use. The pellet was resuspended and sonicated in a lysis buffer (50 mM Tris buffer (pH 8.0) containing 500 mM NaCl, 10 mM 2-mercaptoethanol, and 10% glycerol). The supernatant was purified by Ni Sepharose TM 6 Fast Flow (500 μl, Cytiva). After washing with the washing buffer (50 mM Tris buffer (pH 8.0) containing 500 mM NaCl and 20 mM imidazole), The bound protein was eluted with elution buffer (50 mM Tris buffer (pH 8.0) containing 500 mM NaCl and 200 mM imidazole). The eluate was concentrated using VIVASPIN Turbo 15 (Sartorius), and the concentration was adjusted to 5 mg/ml. The purified protein was aliquoted to the appropriate volume, immediately frozen in liquid nitrogen, and stored at −80°C until use.
(§2) After YLG was incubated with recombinant ShHTL6 or ShHTL7 for 1 h, the fluorescence was measured by spectraMax i5 (Molecular Devices) at excitation by 480 nm and detection by 520 nm. IC50 values were calculated using the online tool Quest GraphTM IC50 Calculator (AAT Bioquest, Inc., United States; https://www.aatbio.com/tools/ ic50-calculator).

[3] = target: T2, ShHTL7 (Striga hermonthica, UniProt A0A0M3PNA2); test: YLG assay (inhibition of YLG hydrolysis) with recombinant ShHTL7; assay type: biochemical; conditions: 1 h incubation, read-out: IC50 in YLG assay
T2 sequence (A0A0M3PNA2 1-271): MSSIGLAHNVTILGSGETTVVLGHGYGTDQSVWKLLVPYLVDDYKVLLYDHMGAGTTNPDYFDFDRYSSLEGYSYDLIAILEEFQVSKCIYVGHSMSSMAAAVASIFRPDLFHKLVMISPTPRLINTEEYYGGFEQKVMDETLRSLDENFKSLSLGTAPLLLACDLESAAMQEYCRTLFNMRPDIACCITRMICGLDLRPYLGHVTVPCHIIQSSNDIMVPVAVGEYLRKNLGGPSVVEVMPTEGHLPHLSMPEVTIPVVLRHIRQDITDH
Protocol: as §1, §2

CC1=CC(OC(=O)/C=C\c2ccccc2)OC1=O (centres unmarked) [c-CASL1]
lateral root density ([1]; 11 days): increased
primary root length ([1]; 11 days): inhibited
shoot fresh weight ([1]; 20 days): increase
IC50 [2]: 900 nM
IC50 [3]: 590 nM
